Converted amounts (≈) assume the structure as drawn. The source made the active and inactive calls. The calls are words filed in the database; no cut-off is given here.
Columns and labels:
[1] = Drug uptake in dog brain at 3 mg/kg, po after 96 hrs; format: ADME, organism-based, Canis lupus familiaris; conditions: read-out: Drug uptake
[2] = Apparent permeability across apical to basolateral side in human Caco2 cells; format: ADME, cell-based; conditions: Caco-2
[3] = Clearance in cynomolgus monkey at 1 mg/kg, iv or 5 mg/kg, po by LC-MS/MS analysis; format: ADME, organism-based, Macaca fascicularis; conditions: in vivo
Liver [4] = experiment: Metabolic stability in rat liver microsomes at 1 uM after 5 to 60 mins by LC-MS/MS analysis; format: ADME, microsome
P2X purinoceptor 7 = P2X purinoceptor 7 (Mus musculus, UniProt Q9Z1M0); experiment: Antagonist activity at P2X7 in mouse whole blood assessed as inhibition of BzATP-induced IL-1beta release preincubated for 30 mins followed by BzATP addition measured after […] by ELISA
Sequence of P2X purinoceptor 7 (Q9Z1M0 whole entry): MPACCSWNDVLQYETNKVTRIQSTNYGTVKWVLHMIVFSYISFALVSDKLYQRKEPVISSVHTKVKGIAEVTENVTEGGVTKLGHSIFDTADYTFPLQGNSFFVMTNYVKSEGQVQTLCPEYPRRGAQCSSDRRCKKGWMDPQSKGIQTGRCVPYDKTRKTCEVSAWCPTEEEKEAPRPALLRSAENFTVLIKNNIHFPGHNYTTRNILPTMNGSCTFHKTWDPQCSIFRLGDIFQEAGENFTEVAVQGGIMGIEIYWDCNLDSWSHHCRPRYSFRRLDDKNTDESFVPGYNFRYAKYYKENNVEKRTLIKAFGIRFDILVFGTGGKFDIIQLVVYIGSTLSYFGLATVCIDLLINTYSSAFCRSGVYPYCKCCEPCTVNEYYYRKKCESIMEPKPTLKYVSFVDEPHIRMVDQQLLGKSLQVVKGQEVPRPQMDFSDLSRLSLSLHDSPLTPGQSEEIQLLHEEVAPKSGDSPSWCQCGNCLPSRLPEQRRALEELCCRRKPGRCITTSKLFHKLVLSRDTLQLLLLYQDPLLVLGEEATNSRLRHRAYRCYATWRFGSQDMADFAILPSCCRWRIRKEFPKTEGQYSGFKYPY

[5] = Clearance in beagle dog at 0.5 mg/kg, iv or 2.5 mg/kg, po by LC-MS/MS analysis; format: ADME, organism-based, Canis lupus familiaris; conditions: in vivo
[6] = Oral bioavailability in Sprague-Dawley rat at 5 mg/kg by LC-MS/MS analysis; format: ADME, organism-based; conditions: in vivo
Rattus norvegicus [7] = experiment: Inhibition of Bz-ATP-induced IL-1beta release in po dosed Sprague-Dawley rat hippocampus preincubated for 1 hr followed by Bz-ATP challenge measured after 2 hrs by microdialysis method; format: functional, organism-based
[8] = biological target: P2X purinoceptor 1 (Homo sapiens) (UniProt P51575); experiment: Antagonist activity at P2X1 (unknown origin) assessed as inhibition of BzATP-induced calcium flux up to 10 uM preincubated for 30 mins followed by BzATP addition measured over 180 secs by FLIPR assay
Sequence of P2X purinoceptor 1 (Homo sapiens) (P51575 whole entry): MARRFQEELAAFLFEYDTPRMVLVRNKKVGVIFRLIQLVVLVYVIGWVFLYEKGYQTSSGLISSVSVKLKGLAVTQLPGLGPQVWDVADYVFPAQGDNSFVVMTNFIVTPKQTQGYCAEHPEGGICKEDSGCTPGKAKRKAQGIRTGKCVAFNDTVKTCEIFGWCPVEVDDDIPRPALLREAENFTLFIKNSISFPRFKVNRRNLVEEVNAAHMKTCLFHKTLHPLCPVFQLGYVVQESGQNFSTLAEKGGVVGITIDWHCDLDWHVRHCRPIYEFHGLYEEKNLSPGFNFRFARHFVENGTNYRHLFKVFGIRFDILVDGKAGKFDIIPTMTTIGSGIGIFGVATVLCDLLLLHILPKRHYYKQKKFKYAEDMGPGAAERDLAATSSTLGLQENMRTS

[9] = biological target: P2X purinoceptor 7 (Homo sapiens) (UniProt Q99572); conditions: 100 pM
Sequence of P2X purinoceptor 7 (Homo sapiens) (Q99572 whole entry): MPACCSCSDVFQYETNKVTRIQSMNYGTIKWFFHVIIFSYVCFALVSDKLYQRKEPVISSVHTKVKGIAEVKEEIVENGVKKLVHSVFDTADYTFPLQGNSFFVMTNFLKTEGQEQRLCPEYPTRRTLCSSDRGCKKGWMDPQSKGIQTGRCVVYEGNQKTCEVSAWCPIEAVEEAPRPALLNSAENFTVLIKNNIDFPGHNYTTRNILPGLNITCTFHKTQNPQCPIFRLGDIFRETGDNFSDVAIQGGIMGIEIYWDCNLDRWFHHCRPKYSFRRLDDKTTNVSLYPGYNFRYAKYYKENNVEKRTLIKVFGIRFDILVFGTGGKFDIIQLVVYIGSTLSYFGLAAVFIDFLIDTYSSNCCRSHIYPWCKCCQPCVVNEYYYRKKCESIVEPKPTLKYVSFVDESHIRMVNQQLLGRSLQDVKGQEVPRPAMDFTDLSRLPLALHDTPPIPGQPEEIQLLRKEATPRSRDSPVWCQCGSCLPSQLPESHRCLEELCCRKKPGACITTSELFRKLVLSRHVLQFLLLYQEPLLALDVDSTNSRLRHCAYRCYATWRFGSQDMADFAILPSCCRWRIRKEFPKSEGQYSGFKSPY
Description: Displacement of [3H]-(6S)-7-[[2-chloro-3-(trifluoromethyl)phenyl]methyl]-6-methyl-3-pyrimidin-2-yl-5,6dihydro[1,2,4]triazolo[4,3-a]pyrazin-8-one from P2X7 in human superior frontal gyrus at 100 pM to 10 uM

[10] = biological target: P2X purinoceptor 4 (Homo sapiens) (UniProt Q99571); experiment: Antagonist activity at P2X4 (unknown origin) assessed as inhibition of BzATP-induced calcium flux up to 10 uM preincubated for 30 mins followed by BzATP addition measured over 180 secs by FLIPR assay
Sequence of P2X purinoceptor 4 (Homo sapiens) (Q99571 whole entry): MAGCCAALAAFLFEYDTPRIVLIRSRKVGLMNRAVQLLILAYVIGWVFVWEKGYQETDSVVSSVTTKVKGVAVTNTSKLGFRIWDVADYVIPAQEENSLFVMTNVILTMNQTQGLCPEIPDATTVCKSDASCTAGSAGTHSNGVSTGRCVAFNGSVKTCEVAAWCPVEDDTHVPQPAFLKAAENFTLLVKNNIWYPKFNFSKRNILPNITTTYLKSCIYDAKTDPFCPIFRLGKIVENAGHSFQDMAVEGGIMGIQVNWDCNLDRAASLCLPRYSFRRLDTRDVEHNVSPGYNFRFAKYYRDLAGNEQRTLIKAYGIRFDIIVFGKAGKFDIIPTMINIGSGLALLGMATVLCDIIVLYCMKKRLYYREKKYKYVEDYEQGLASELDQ

[11] = Protein binding in rat plasma at 1 uM after 6 hrs by equilibrium dialysis method; format: ADME, cell-free; conditions: read-out: PPB (converted)
[12] = biological target: P2X purinoceptor 7 (Rattus norvegicus) (UniProt Q64663); experiment: Displacement of [3H]-(6S)-7-[[2-chloro-3-(trifluoromethyl)phenyl]methyl]-6-methyl-3-pyrimidin-2-yl-5,6dihydro[1,2,4]triazolo[4,3-a]pyrazin-8-one from P2X7 in rat frontal cortex at 100 pM to 10 uM
Sequence of P2X purinoceptor 7 (Rattus norvegicus) (Q64663 whole entry): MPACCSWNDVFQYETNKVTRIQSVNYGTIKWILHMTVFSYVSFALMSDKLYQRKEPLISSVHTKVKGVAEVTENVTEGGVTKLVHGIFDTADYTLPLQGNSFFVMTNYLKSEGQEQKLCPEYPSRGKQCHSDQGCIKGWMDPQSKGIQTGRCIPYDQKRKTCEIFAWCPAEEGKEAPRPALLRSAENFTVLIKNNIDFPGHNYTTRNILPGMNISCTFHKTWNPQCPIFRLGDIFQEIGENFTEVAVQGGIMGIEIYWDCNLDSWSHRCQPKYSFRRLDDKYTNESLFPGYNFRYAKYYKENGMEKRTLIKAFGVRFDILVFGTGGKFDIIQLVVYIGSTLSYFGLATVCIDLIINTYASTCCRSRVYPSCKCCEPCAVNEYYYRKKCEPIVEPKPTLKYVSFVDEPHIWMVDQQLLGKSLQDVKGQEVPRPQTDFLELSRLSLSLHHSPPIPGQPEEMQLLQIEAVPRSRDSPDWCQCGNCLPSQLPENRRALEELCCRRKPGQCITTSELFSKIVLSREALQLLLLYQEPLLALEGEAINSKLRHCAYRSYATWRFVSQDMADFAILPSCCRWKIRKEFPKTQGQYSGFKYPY

[13] = Drug uptake in dog brain at 3 mg/kg, po after 168 hrs; format: ADME, organism-based, Canis lupus familiaris; conditions: read-out: Drug uptake
[14] = Solubility of compound in phosphate buffer at pH 7 after 3 days; format: physicochemical
[15] = Antagonist activity at P2X7 in dog whole blood assessed as inhibition of BzATP-induced IL-1beta release preincubated for 30 mins followed by BzATP addition measured after […] by ELISA; conditions: Canis lupus familiaris
Rattus norvegicus [16] = experiment: Drug uptake in rat at 62.5 to 250 mg/kg administered via oral gavage on day 1 and day 4; format: ADME, organism-based; conditions: in vivo
[17] = Protein binding in human plasma at 1 uM after 6 hrs by equilibrium dialysis method; format: ADME, cell-free; conditions: read-out: PPB (converted)
[18] = Volume of distribution at steady state in Sprague-Dawley rat at 1 mg/kg, iv or 5 mg/kg, po by LC-MS/MS analysis; format: ADME, organism-based; conditions: in vivo, read-out: Vdss
Cynomolgus monkey = experiment: Oral bioavailability in cynomolgus monkey at 5 mg/kg by LC-MS/MS analysis; format: ADME, organism-based, Macaca fascicularis; conditions: in vivo
Canis familiaris [19] = experiment: Oral bioavailability in beagle dog at 2.5 mg/kg by LC-MS/MS analysis; format: ADME, organism-based, Canis lupus familiaris; conditions: in vivo
[20] = biological target: P2X purinoceptor 3 (Homo sapiens) (UniProt P56373); experiment: Antagonist activity at P2X3 (unknown origin) assessed as inhibition of BzATP-induced calcium flux up to 10 uM preincubated for 30 mins followed by BzATP addition measured over 180 secs by FLIPR assay
Sequence of P2X purinoceptor 3 (Homo sapiens) (P56373 whole entry): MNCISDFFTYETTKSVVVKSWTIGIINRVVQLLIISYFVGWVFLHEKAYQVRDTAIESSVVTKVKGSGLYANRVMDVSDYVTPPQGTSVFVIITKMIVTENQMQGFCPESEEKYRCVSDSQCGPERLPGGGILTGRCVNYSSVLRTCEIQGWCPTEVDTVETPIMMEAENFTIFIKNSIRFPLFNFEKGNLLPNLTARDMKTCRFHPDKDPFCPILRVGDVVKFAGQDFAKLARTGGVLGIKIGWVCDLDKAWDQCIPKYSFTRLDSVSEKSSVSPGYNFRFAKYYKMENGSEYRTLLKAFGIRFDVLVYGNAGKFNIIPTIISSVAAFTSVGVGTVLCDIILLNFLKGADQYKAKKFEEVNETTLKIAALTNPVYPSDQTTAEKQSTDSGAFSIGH

Canis familiaris [21] = experiment: Inhibition of LPS/Bz-ATP-induced IL-1beta release in dog blood at 3 mg/kg, po after 4 to 96 hrs; format: functional, organism-based; conditions: Canis lupus familiaris
P2X purinoceptor = P2X purinoceptor (Macaca mulatta, UniProt G7N604); experiment: Antagonist activity at macaque P2X7 assessed as inhibition of BzATP-induced calcium flux preincubated for 30 mins followed by BzATP addition measured over 180 secs by FLIPR assay
Sequence of P2X purinoceptor (G7N604 whole entry): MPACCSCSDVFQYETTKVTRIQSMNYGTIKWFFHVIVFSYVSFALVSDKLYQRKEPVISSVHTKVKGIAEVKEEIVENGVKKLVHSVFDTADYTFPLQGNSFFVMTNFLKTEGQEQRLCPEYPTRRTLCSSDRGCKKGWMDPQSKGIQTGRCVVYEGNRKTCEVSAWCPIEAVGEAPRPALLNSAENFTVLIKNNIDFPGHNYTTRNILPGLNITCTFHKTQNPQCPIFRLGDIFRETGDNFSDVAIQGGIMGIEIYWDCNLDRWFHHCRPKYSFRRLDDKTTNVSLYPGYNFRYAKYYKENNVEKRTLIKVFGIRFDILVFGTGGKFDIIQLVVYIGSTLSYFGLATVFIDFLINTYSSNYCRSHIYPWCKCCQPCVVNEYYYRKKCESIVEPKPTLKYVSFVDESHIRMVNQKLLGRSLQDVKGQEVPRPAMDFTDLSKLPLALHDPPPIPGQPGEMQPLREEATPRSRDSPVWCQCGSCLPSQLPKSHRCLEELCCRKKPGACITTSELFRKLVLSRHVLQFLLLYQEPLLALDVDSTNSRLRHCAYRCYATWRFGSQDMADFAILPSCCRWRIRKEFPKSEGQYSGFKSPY

Canis familiaris [22] = experiment: Toxicity in dog assessed as change in serum chemistry at 30 to 300 mg/kg administered via oral gavage on day 1 and day 5; format: organism-based, Canis lupus familiaris; conditions: in vivo
Homo sapiens = species on record: Homo sapiens; experiment: Toxicity in human at 0.5 to 600 mg
Rattus norvegicus [23] = experiment: Toxicity in rat at 62.5 to 250 mg/kg administered via oral gavage on day 1 and day 4; format: organism-based; conditions: in vivo
Canis familiaris [24] = experiment: Drug uptake in dog at 30 to 300 mg/kg administered via oral gavage on day 1 and day 5; format: ADME, organism-based, Canis lupus familiaris; conditions: in vivo
Canis familiaris [25] = experiment: Ex vivo receptor occupancy at P2X7 in dog brain at 3 mg/kg, po after 96 hrs by autoradiography; format: functional, organism-based; conditions: Canis lupus familiaris
Canis familiaris [26] = experiment: Toxicity in dog at 30 to 300 mg/kg administered via oral gavage on day 1 and day 5 by hematoxylin-eosin staining-based necroscopic method; format: organism-based, Canis lupus familiaris; conditions: in vivo
[27] = Apparent permeability across basolateral to apical side in human Caco2 cells; format: ADME, cell-based; conditions: Caco-2
[28] = Protein binding in mouse plasma at 1 uM after 6 hrs by equilibrium dialysis method; format: ADME, cell-free; conditions: read-out: PPB (converted)
Liver [29] = experiment: Metabolic stability in dog liver microsomes at 1 uM after 5 to 60 mins by LC-MS/MS analysis; format: ADME, Canis lupus familiaris, microsome
[30] = Half life in cynomolgus monkey at 1 mg/kg, iv by LC-MS/MS analysis; format: ADME, organism-based, Macaca fascicularis; conditions: in vivo
[31] = Half life in Sprague-Dawley rat at 1 mg/kg, iv by LC-MS/MS analysis; format: ADME, organism-based; conditions: in vivo
Cytochrome P450 2C8 = biological target: T1, Cytochrome P450 2C8 (Homo sapiens, UniProt P10632); experiment: Inhibition of CYP2C8 in human liver microsomes using paclitaxel as substrate after 15 mins by LC-MS/MS analysis; format: ADME
T1 sequence (P10632 whole entry): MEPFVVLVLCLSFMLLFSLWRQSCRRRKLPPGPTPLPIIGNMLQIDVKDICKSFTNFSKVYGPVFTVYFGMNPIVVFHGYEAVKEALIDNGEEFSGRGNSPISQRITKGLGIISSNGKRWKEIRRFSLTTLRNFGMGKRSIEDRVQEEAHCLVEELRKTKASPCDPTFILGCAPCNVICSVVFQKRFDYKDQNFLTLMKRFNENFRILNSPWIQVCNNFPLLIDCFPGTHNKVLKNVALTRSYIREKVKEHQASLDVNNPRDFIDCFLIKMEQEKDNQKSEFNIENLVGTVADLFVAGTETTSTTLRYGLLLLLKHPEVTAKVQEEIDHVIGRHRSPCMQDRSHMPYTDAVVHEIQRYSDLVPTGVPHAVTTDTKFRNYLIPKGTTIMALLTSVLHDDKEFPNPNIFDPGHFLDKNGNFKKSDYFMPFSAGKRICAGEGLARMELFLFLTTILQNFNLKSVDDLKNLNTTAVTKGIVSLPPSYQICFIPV

Hepatocyte = experiment: Metabolic stability in hepatocytes (unknown origin); format: ADME, cell-based

For `C[C@@H]1c2nnn(-c3ncc(F)cn3)c2CCN1C(=O)c1cccc(C(F)(F)F)c1Cl` [JNJ-54175446], the concentration at 96 h [1] was > 1 µM, the Papp A→B [2] was 753 nm/s and the clearance [3] was 0.264 L/h/kg. The Stability (Liver [4]) was “Stable”, the IC50 (P2X purinoceptor 7) was 0.0316 µM and the clearance [5] was 0.054 L/h/kg. For the same compound, the bioavailability [6] was 96%, the inhibition (Rattus norvegicus [7]) was “Dose-dependent effect” and the inhibition [8] was “inactive”. The inhibition [9] was “Dose-dependent effect”, the inhibition [10] was “inactive” and the fraction unbound at 6 h, 1 µM [11] was 0.122. The inhibition [12] was “Dose-dependent effect”, the concentration at 168 h [13] was ≤ 0.5 µM and the solubility at 72 h [14] was 20.7 µM (≈ 9.12 µg/mL). The IC50 [15] was 0.158 µM, the Drug uptake (Rattus norvegicus [16]) was “Active” and the fraction unbound at 6 h, 1 µM [17] was 0.112. The Vd [18] was 2.1 L/kg, the F (Cynomolgus monkey) was 157% and the F (Canis familiaris [19]) was 164%. For the same compound, the inhibition [20] was “inactive”, the inhibition (Canis familiaris [21]) was “Active” and the IC50 (P2X purinoceptor) was 0.00794 µM. For the same compound, the Activity (Canis familiaris [22]) was “Non-Toxic”, the Activity (Homo sapiens) was “Non-Toxic” and the Activity (Rattus norvegicus [23]) was “Non-Toxic”. The Drug uptake (Canis familiaris [24]) was “Active”, the Occ (Canis familiaris [25]) was “Active” and the Activity (Canis familiaris [26]) was “Non-Toxic”. The Papp B→A [27] was 488 nm/s, the fraction unbound at 6 h, 1 µM [28] was 0.113 and the Stability (Liver [29]) was “Stable”. The half-life [30] was 6.9 h, the half-life [31] was 8.6 h and the IC50 (Cytochrome P450 2C8) was 9.6 µM. The Stability (Hepatocyte) was “Stable”.
